Test results as given in PubChem BioAssay (NCI).
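Dose response: 5 concentrations. Exposure: 48 h. Format: 96-well plates. Endpoint: linear interpolation; highest concentration if not reached. GI50 is the concentration that inhibits growth by half. Definition used: TGI = concentration required for complete inhibition of growth.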

Experiments:
Test in all cases: NCI-60 cell line screen, 48 h
[1] = tested on: OVCAR-3 ovarian
[2] = tested on: SF-295 CNS
[3] = tested on: NCI-H460 lung
[4] = tested on: NCI-H226 lung
[5] = tested on: CAKI-1 renal
[6] = tested on: SN12C renal
[7] = tested on: IGROV1 ovarian
[8] = tested on: OVCAR-4 ovarian
[9] = tested on: 786-0 renal
[10] = tested on: UACC-62 melanoma

Structure (SMILES)	TGI [1] [µM]	TGI [2] [µM]	TGI [3] [µM]	TGI [4] [µM]	TGI [5] [µM]	TGI [6] [µM]	TGI [7] [µM]	TGI [8] [µM]	TGI [9] [µM]	TGI [10] [µM]	GI50 [1] [µM]	GI50 [2] [µM]	GI50 [3] [µM]	GI50 [4] [µM]	GI50 [5] [µM]	GI50 [6] [µM]	GI50 [7] [µM]	GI50 [8] [µM]	GI50 [9] [µM]	GI50 [10] [µM]
COc1ccc(-c2cc(-c3cc(C)cc(Br)c3O)no2)cc1	23.9	14.4	44.5	42.4	24	85.2	> 100	13.2	31.6	38.9	–	–	–	–	–	–	–	–	–	–
O=C(/C=C/c1ccc(Cl)c(Cl)c1)c1ccc2ccccc2c1	> 100	> 100	> 100	> 100	> 100	71.6	> 100	> 100	> 100	> 100	–	–	–	–	–	–	–	–	–	–
Nc1ccccc1/C(O)=C1/CCOC1=O	> 100	> 100	> 100	> 100	> 100	> 100	> 100	> 100	> 100	> 100	–	–	–	–	–	–	–	–	–	–
COc1cc(/C=C/c2ccc(OC)c(O)c2)cc(OC)c1	4.88	4.54	14.1	16.7	72.8	30.3	86.4	67.9	32.7	15.1	–	–	–	–	–	–	–	–	–	–
O=C(CC(=O)n1nc(-c2ccccc2)c(N=Nc2ccc(Cl)cc2)c1-c1ccccc1)Nc1ccc(Cl)cc1	> 100	> 100	> 59.4	> 100	> 100	> 100	> 100	> 100	> 61.1	> 100	–	–	–	–	–	–	–	–	–	–
CNC(=S)/N=C(\N)N(C)C	> 100	> 100	> 100	> 100	> 100	> 100	> 100	> 10	> 100	> 100	–	–	–	–	–	–	–	–	–	–
CCCCC(CC)COC(=O)C[N+](C)(C)CCOC(c1ccccc1)c1ccccc1 (stereo not drawn)	3.64	26.3	18.8	27.4	31.9	6	3.58	6.99	5.69	3.16	1.79	9.63	4.77	6.83	16.8	2.43	1.82	2.4	2.3	1.67
COc1cc(OC)c(C(=O)/C=C/c2cccc(C(F)(F)F)c2)c(OC)c1	6.89	6.72	2.67	3.74	7.22	5.68	5.6	8.57	5.59	2.5	2.03	1.67	1.08	1.16	2.17	1.52	1.71	2.24	1.66	0.986
COc1cc2[nH]c3c(c2cc1OC)CCN[C@]31CC[C@]2(CC3c4c(cc(OC)c(O)c42)CCN3C)C[C@H]1OC (stereo partly drawn)	46.2	36.4	63.5	> 100	> 100	62.8	80.6	43.3	32.6	49	–	–	–	–	–	–	–	–	–	–
CCOC(=O)C1CCN(S(=O)(=O)/N=C2/NC(=O)NC2=C(Cl)Cl)CC1	3.29	14.1	11.4	9.94	–	3.1	3.93	–	6.64	3.27	1.77	3.56	3.19	2.86	–	1.55	1.91	–	0.545	1.71
CCc1nc2cc(F)c(/C=C/C(=O)NO)cc2c(=O)n1CCc1ccccc1	10.8	0.617	3.17	7.36	3.12	–	–	14.9	2.03	0.699	0.323	0.234	0.31	0.371	0.305	–	–	0.314	0.309	0.235
CCCC1=C(CC)C(C(=O)Nc2c(C)cccc2C)=NC(S)N1 (stereo not drawn)	> 100	> 100	> 100	> 100	> 100	> 100	> 100	> 100	> 100	> 100	–	–	–	–	–	–	–	–	–	–
C=C1C(=O)O[C@H]2[C@H]1CC/C(COC(=O)NCCCCNC(=O)OC/C1=C/CC[C@@]3(C)O[C@H]3[C@H]3OC(=O)C(=C)[C@@H]3CC1)=C\CC[C@@]1(C)O[C@@H]21	2.01	27.4	18	30.5	23	10.1	12.4	8.53	4.26	2.5	0.693	13	4.61	11.4	10.8	2.75	3.32	1.77	1.99	0.753
c1cnn(CN(Cn2cccn2)Cn2cccn2)c1	> 100	> 100	> 100	–	> 100	> 100	–	> 100	> 100	> 100	–	–	–	–	–	–	–	–	–	–
COc1ccc(/C=C/c2c(C(=O)/C=C/c3ccccc3)c(C)nc3ccccc23)cc1	3.12	7.46	–	4.02	2.82	4.63	5.36	6.85	3.31	3.11	1.65	2.62	–	1.81	1.41	2.05	1.57	2.27	1.76	1.61
CCCC(CCC)NCC(O)c1cc(-c2ccc(C(F)(F)F)cc2)nc(C(F)(F)F)c1 (stereo not drawn)	3.38	3.78	3.4	3.08	3.98	3.2	4.09	3.32	2.9	3.25	1.93	1.99	1.77	1.59	1.94	1.69	2.09	1.83	1.37	1.72
